# Source: publication PMC11693670 (Frontiers in Fungal Biology, 2024)
# Ends that are not written are not given here.
# Key:
# C. neoformans (KN99α) = conditions: 96 h
# Protocol: C. neoformans and C. auris plates were incubated at 37°C and 5% CO2 for 96 hours after introduction of peptide and read at OD 600nm every 24 hours. […] MICs were determined for suspected positive hits against C. neoformans and C. albicans grown under the conditions previously described with approximately 500 fungal cells per well. […] C. neoformans plates were incubated at 37°C and 5% CO2 for 96 hours after introduction of peptide and read at OD 600nm every 24 hours. […] MICs were determined by approximately 50% inhibition of fungal growth, meaning that fungal growth as measured by OD was reduced 50% by peptide treatment relative to vehicle control.
# Percent inhibition was calculated as the reduction
# in OD at 600nm following peptide treatment relative to vehicle control. The average of six
# replicates was used for each peptide concentration treatment and vehicle control.
# C. neoformans = experiment: Fungicidal/fungistatic tests; assay type: cell-based, Cryptococcus neoformans; design: key: Presence (+); absence (–); conditions: 5 µL plated on YPD agar, 30°C, visual inspection, six replicates
# Protocol: Fungicidal/fungistatic tests were conducted with the four especially effective syn-enterocin peptides. C. neoformans was grown at 30°C in YPD overnight to an OD between 0.5 and 1.2 at 600 nm, then the C. neoformans culture was diluted to 10^5 and 10^3 fungal cells per well on a 96-well plate. Each well was treated with peptide at 16 µM before 5 µL per well was transferred onto YPD agar plates. Dilutions to reach desired cell counts were done in YPD. Six replicates of each peptide/dilution combination were plated. Plates were incubated at 30°C for 72 hours. Fungal growth was determined by visual inspection, with presence or absence of fungal growth being recorded (individual colonies were absent or overgrown and thus uncountable).
Compound,MIC against C. neoformans (C. neoformans (KN99α)) [µM],"Presence or absence of fungal growth at 72 hrs (C. neoformans; cell count 10^3, treatment 16 μM)","Presence or absence of fungal growth at 72 hrs (C. neoformans; cell count 10^5, treatment 16 μM)"
AGWERIAKELKKYIKKGKKVIRAAW [Peptide 32],2,,
OC(Cn1cncn1)(Cn1cncn1)c1ccc(F)cc1F [Fluconazole],,–,–
